Several values for one entry are separate records, joined by “and”; a condition that tells them apart may be missing. Identical values can stand only once. A value given as a limit tells only on which side of the number the result lay.

The target of this experiment is T1, GRK2 (Homo sapiens, UniProt P25098).
T1 sequence (P25098 1-689): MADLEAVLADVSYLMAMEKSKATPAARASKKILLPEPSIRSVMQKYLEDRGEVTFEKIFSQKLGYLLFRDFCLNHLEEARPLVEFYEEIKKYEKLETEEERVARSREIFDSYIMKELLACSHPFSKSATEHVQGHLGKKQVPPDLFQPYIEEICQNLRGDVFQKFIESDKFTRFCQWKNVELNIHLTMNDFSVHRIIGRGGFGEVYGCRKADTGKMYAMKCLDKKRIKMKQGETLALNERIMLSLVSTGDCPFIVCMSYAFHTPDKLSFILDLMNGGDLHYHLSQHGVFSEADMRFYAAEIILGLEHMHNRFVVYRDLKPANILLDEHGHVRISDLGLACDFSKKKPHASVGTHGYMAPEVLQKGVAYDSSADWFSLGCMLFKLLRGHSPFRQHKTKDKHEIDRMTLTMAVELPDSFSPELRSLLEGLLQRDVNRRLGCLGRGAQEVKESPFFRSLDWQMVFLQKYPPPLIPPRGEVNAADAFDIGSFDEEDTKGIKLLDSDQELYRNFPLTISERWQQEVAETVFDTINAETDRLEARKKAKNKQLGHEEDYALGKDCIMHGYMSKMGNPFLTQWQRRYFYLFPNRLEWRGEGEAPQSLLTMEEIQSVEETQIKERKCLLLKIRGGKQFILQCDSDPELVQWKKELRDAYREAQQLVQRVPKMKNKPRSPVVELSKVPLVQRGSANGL
In words: biochemical. The following applies: GRK2 IC50 (μM), 10 nM GRK2; 10 uM ATP.
Experimental: Positive and negative control wells received an equal volume of DMSO. The final DMSO concentration in the assay is 1%.
The plate was placed in centrifuge equipped with a spin-bucket rotor and spun for 1 min at 1000 rpm.
GRK2 enzymatic reactions were initiated with the addition of 2 μL/well of 50 nM GRK2 in assay buffer. Plates were centrifuged for 1 min at 1000 rpm. For negative control wells, the order of reagent addition was reversed: 10 μL/well ADP detection mix (see below) was added first, followed by the addition of 2 μL/well of the GRK2 solution. Reaction mixtures were incubated at ambient temperature for 2 hours.
Following incubation, the reactions were quenched with 10 μL/well of the Transcreener ADP detection mix. […] The plates were then centrifuged for 1 min at 1000 rpm.
Fluorescence polarization values of the reaction mixtures were read on a Safire II plate reader after a 60 min incubation at ambient temperature. Excitation wavelength=590 nm; emission wavelength=650 nm.
The fluorescence polarization data were converted to % activity as follows:
% activity=(sample−NC)/(PC−NC)*100
where NC is the mean of negative control (ADP detection mix added prior to GRK2 addition), and PC is the mean of positive control (GRK2 reaction without inhibitor). IC50 values are determined from a 4-parameter fit, using the following equation:
Y=Bottom+(Top−Bottom)/(1+10^((Log IC50-X)*Hill slope)),
where X=log10 of the compound concentration.
In general, IC50 refers to the concentration that gives 50% inhibition. Higher therefore signals weaker potency. Molecule `O=c1c2cc(-c3cn[nH]c3)ccc2ncn1Cc1cccc(OC(F)(F)F)c1` [Compound 66, 6-(1H-Pyrazol-4-yl)-3-[[3-(trifluoromethoxy)phenyl]methyl]quinazolin-4-one] yielded an IC50 of 22.2 µM.

`O=c1c2cc(-c3c[nH]nc3C(F)(F)F)ccc2ncn1Cc1c(F)cccc1F` [Compound 77, 3-[(2,6-Difluorophenyl)methyl]-6-[3-(trifluoromethyl)-1H-pyrazol-4-yl]quinazolin-4-one] yielded an IC50 above 20 µM.

Take `O=c1c2cc(-c3cn[nH]c3)ccc2ncn1Cc1cccc(-c2ncco2)c1` [Compound 28, 3-(3-(Oxazol-2-yl)benzyl)-6-(1H-pyrazol-4-yl)quinazolin-4(3H)-one]: the midpoint of inhibition, the IC50, lay at 0.446 µM.

Consider `COc1cccc([C@@H](C)n2cnc3ccc(-c4cn[nH]c4)cc3c2=O)c1` [Compound 39, 3-[(1R)-1-(3-Methoxyphenyl)ethyl]-6-(1H-pyrazol-4-yl)quinazolin-4-one], for which the IC50 is 0.009 µM and 0.017 µM.

`COc1cccc(Cn2cnc3ccc(-c4c[nH]nc4C)cc3c2=O)c1` [Compound 37, 3-[(3-Methoxyphenyl)methyl]-6-(3-methyl-1H-pyrazol-4-yl)quinazolin-4-one]: half-maximal inhibition (IC50) was put at 0.066 µM.

Consider `O=C(NCc1ccc(F)cc1F)c1ccc(Cn2cnc3ccc(-c4cn[nH]c4)cc3c2=O)cc1` [Compound C2, N-[(2,4-Difluorophenyl)methyl]-4-[[4-oxo-6-(1H-pyrazol-4-yl)quinazolin-3-yl]methyl]benzamide], for which half-maximal inhibition (IC50) was put at 4.34 µM.

With `COc1cccc(Cn2cnc3ccc(-n4cn[nH]c4=O)cc3c2=O)c1` [Compound 38, 3-[(3-Methoxyphenyl)methyl]-6-(5-oxo-1H-1,2,4-triazol-4-yl)quinazolin-4-one], the IC50 amounted to 0.129 µM.

`O=C(NCc1ccc(F)cc1)c1cccc(Cn2cnc3ccc(-c4cn[nH]c4)c(F)c3c2=O)c1` [Compound 57, 3-[[5-Fluoro-4-oxo-6-(1H-pyrazol-4-yl)quinazolin-3-yl]methyl]-N-[(4-fluorophenyl)methyl]benzamide] gave an IC50 below 0.01 µM.

`COc1cc(Cn2cnc3ccc(-c4ccnc5[nH]ccc45)cc3c2=O)ccc1F` [Compound 54, 3-[(4-Fluoro-3-methoxy-phenyl)methyl]-6-(1H-pyrrolo[2,3-b]pyridin-4-yl)quinazolin-4-one] yielded an IC50 of 12.3 µM.

`COc1cccc(Cn2cnc3ccc(-c4ccnc(N)n4)cc3c2=O)c1` [Compound 45, 6-(2-Aminopyrimidin-4-yl)-3-[(3-methoxyphenyl)methyl]quinazolin-4-one] yielded an IC50 of 0.271 µM.

In the case of `O=C(NCc1c(F)cccc1F)c1ccc(Cn2cnc3ccc(-c4cn[nH]c4)cc3c2=O)cc1` [Compound C3, N-[(2,6-Difluorophenyl)methyl]-4-[[4-oxo-6-(1H-pyrazol-4-yl)quinazolin-3-yl]methyl]benzamide], the IC50 was around 20 µM.

Molecule `Cc1nc2ccc(-c3cn[nH]c3)cc2c(=O)n1Cc1cccc(OC2CN(C)C2)c1` [Compound 25, 2-Methyl-3-(3-((1-methylazetidin-3-yl)oxy)benzyl)-6-(1H-pyrazol-4-yl)quinazolin-4(3H)-one] displayed an IC50 of 2.34 µM.

As to `O=c1c2cc(-c3ccc(F)nc3)ccc2ncn1Cc1ccccc1` [Compound 82, 3-Benzyl-6-(6-fluoro-3-pyridyl)quinazolin-4-one], the IC50 was above 100 µM.

`NC1CCN(c2nc3ccc(-c4cn[nH]c4)cc3c(=O)n2Cc2cccc(C(=O)NCc3ccc(F)cc3)c2)C1` (stereo not drawn) [Compound 55, 3-[[2-(3-Aminopyrrolidin-1-yl)-4-oxo-6-(1H-pyrazol-4-yl)quinazolin-3-yl]methyl]-N-[(4-fluorophenyl)methyl]benzamide] displayed an IC50 of 0.014 µM.

`O=c1c2cc(-c3cccnc3)ccc2ncn1Cc1cccc(Cl)c1` [Compound 49, 3-[(3-Chlorophenyl)methyl]-6-(3-pyridyl)quinazolin-4-one] registered an IC50 above 50 µM.

Take `[2H]C([2H])(Oc1cccc([C@@H](C)n2cnc3ccc(-c4cn[nH]c4)cc3c2=O)c1)C(=O)O` [Compound 26, 2,2-Dideuterio-2-[3-[(1R)-1-[4-oxo-6-(1H-pyrazol-4-yl)quinazolin-3-yl]ethyl]phenoxy]acetic Acid]: the IC50 is 0.143 µM.

`COc1cccc(C(CCN(C)C)n2cnc3ccc(-c4cn[nH]c4)cc3c2=O)c1` (stereo not drawn) [Compound 29, 3-(3-(Dimethylamino)-1-(3-methoxyphenyl)propyl)-6-(1H-pyrazol-4-yl)quinazolin-4(3H)-one] came in with an IC50 of 0.054 µM.

Consider `COc1cccc(C(CO)n2cnc3ccc(-c4cn[nH]c4)cc3c2=O)c1` (stereo not drawn) [Compound 42, 3-[2-Hydroxy-1-(3-methoxyphenyl)ethyl]-6-(1H-pyrazol-4-yl)quinazolin-4-one], for which the IC50 was 0.025 µM.

Take `COc1cccc(Cn2cnc3ccc(-c4nn[nH]n4)cc3c2=O)c1` [Compound 48, 3-[(3-Methoxyphenyl)methyl]-6-(2H-tetrazol-5-yl)quinazolin-4-one]: the IC50 was above 50 µM.

The molecule `COc1cccc(Cn2c(C)nc3ccc(-c4cn[nH]c4)cc3c2=O)c1` [Compound 20, 3-[(3-Methoxyphenyl)methyl]-2-methyl-6-(1H-pyrazol-4-yl)quinazolin-4-one] came in with an IC50 of 0.014 µM.

As to `CC(c1cccc(OCCS(C)(=O)=O)c1)n1cnc2ccc(-c3cn[nH]c3)cc2c1=O` (stereo not drawn) [Compound 17, 3-(1-(3-(2-(Methylsulfonyl)ethoxy)phenyl)ethyl)-6-(1H-pyrazol-4-yl)quinazolin-4(3H)-one], the IC50 was found to be 1.31 µM.

In turn, `COc1cccc(Cn2cnc3ccc(-c4cnc(N)nc4)cc3c2=O)c1` [Compound 52, 6-(2-Aminopyrimidin-5-yl)-3-(3-methoxybenzyl)quinazolin-4(3H)-one] came in with an IC50 above 19 µM.

For `CCOc1cccc(C(CS(C)(=O)=O)n2cnc3ccc(-c4cn[nH]c4)cc3c2=O)c1` (stereo not drawn) [Compound 15, 3-(1-(3-Ethoxyphenyl)-2-(methylsulfonyl)ethyl)-6-(1H-pyrazol-4-yl)quinazolin-4(3H)-one], the IC50 was determined as 5.59 µM.

Consider `COc1cccc(Cn2cnc3ccc(-c4cn[nH]c(=O)c4)cc3c2=O)c1` [Compound 46, 3-[(3-Methoxyphenyl)methyl]-6-(6-oxo-1H-pyridazin-4-yl)quinazolin-4-one], for which the midpoint of inhibition, the IC50, lay at 1.46 µM.

In the case of `[2H]C([2H])(Oc1cccc([C@@H](C)n2cnc3ccc(-c4cn[nH]c4)cc3c2=O)c1)C(=O)NC1CC1` [Compound 23, N-Cyclopropyl-2,2-dideuterio-2-[3-[(1R)-1-[4-oxo-6-(1H-pyrazol-4-yl)quinazolin-3-yl]ethyl]phenoxy]acetamide], it took 0.035 µM to reach half-maximal inhibition (IC50).

The molecule `O=c1c2cc(-c3cn[nH]c3)ccc2ncn1Cc1c(F)cccc1F` [Compound 78, 3-[(2,6-Difluorophenyl)methyl]-6-(1H-pyrazol-4-yl)quinazolin-4-one] came in with an IC50 of 0.801 µM.

`CC(c1cccc(C(=O)NC2CN(C)C2)c1)n1cnc2ccc(-c3cn[nH]c3)cc2c1=O` (stereo not drawn) [Compound 24, N-(1-Methylazetidin-3-yl)-3-[1-[4-oxo-6-(1H-pyrazol-4-yl)quinazolin-3-yl]ethyl]benzamide] showed an IC50 of 0.096 µM.

On to `COc1cccc(C(C2CCS(=O)(=O)CC2)n2cnc3ccc(-c4cn[nH]c4)cc3c2=O)c1` (stereo not drawn) [Compound 22, 3-((1,1-Dioxidotetrahydro-2H-thiopyran-4-yl)(3-methoxyphenyl)methyl)-6-(1H-pyrazol-4-yl)quinazolin-4(3H)-one], for which the IC50 is 4.11 µM.

As to `CC(=O)c1cccc(Cn2cnc3ccc(-c4cn[nH]c4)cc3c2=O)c1` [Compound 41, 3-[(3-Acetylphenyl)methyl]-6-(1H-pyrazol-4-yl)quinazolin-4-one], the IC50 was 0.065 µM.

For the molecule `COCCNc1nccc(-c2ccc3ncn(Cc4cccc(OC)c4)c(=O)c3c2)n1` [Compound C6, 6-[2-(2-Methoxyethylamino)pyrimidin-4-yl]-3-[(3-methoxyphenyl)methyl]quinazolin-4-one], the IC50 was above 50 µM.

As for `O=c1c2cc(-c3cn[nH]c3)ccc2ncn1Cc1cccc(OCc2ccccc2)c1` [Compound 63, 3-[(3-Benzyloxyphenyl)methyl]-6-(1H-pyrazol-4-yl)quinazolin-4-one], the IC50 was determined as 0.065 µM.

With `O=C(O)COc1cccc(Cn2cnc3ccc(-c4cn[nH]c4)cc3c2=O)c1` [Compound 27, 2-[3-[[4-Oxo-6-(1H-pyrazol-4-yl)quinazolin-3-yl]methyl]phenoxy]acetic acid], inhibition was half-maximal at 0.088 µM (IC50).

`COc1cccc(Cn2cnc3ccc(-c4c[nH]c5ncccc45)cc3c2=O)c1` [Compound 43, 3-[(3-Methoxyphenyl)methyl]-6-(1H-pyrrolo[2,3-b]pyridin-3-yl)quinazolin-4-one]: inhibition was half-maximal at 0.757 µM (IC50).

With `O=c1c2cc(-c3cn[nH]c3)ccc2ncn1Cc1cccc(Cl)c1` [Compound 50, 3-[(3-Chlorophenyl)methyl]-6-(1H-pyrazol-4-yl)quinazolin-4-one], the IC50 stood at 0.075 µM.

`CC(c1cccc(O)c1)n1cnc2ccc(-c3cn[nH]c3)cc2c1=O` (stereo not drawn) [Compound 31, 3-[1-(3-Hydroxyphenyl)ethyl]-6-(1H-pyrazol-4-yl)quinazolin-4-one] had an IC50 of 0.008 µM.

With `COc1cccc(Cn2cnc3ccc(-c4cn[nH]n4)cc3c2=O)c1` [Compound 44, 3-[(3-Methoxyphenyl)methyl]-6-(2H-triazol-4-yl)quinazolin-4-one], the IC50 was found to be 0.1 µM.

For the origin of these results see patent US20220267298A1 (priority 2019, published 2022).
